The target in this assay is T1, unphosphorylated ABL1(T315I)(229-499) (Homo sapiens, UniProt P00519, T315I).
T1 construct: The recombinant ABL1(T315I) (isoform 1a) residues 229-499 protein was designed with an N-terminal 10×His tag; made in house; host or cells: E. coli (co-expressed with YopH phosphatase and pGro7 chaperone)
T1 sequence (P00519 229-499 T315I): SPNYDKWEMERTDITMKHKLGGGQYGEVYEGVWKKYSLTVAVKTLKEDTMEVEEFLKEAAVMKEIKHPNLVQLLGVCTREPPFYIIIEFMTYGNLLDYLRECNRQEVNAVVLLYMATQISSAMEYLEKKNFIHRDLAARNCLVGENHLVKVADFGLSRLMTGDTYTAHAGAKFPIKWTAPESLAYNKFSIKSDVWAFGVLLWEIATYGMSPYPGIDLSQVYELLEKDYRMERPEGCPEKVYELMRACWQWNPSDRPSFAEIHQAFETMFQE
The experiment in a line: SPR binding to unphosphorylated ABL1(T315I)(229-499). The conditions noted are these: Ni-NTA capture of 10xHis-tag. A general note: SPR reads the build-up and loss of mass on a sensor chip optically.

The structures appear in SMILES notation. Where two headings read alike, the source gives them in different places.

Broadly, the Kd is a measure of binding affinity in units of concentration. For `Nc1nc(N)c(N=O)c(OCC2CCCCC2)n1` [A-0001, 6-Cyclohexylmethyloxy-5-nitroso-pyrimidine-2,4-diamine], the Kd runs as follows: (HBST buffer, read-out: Unphosphorylated ABL1(T315I)(229-499) in HBST buffer KD) 2 µM; (PBST buffer, read-out: Unphosphorylated ABL1(T315I)(229-499) in PBST buffer KD) 5 µM.
